From the CheMixHub ionic liquid set

Assay: xn = mol fraction of the nth substance listed

CCC[n+]1ccn(C)c1.C[C@H](N)C(=O)[O-] + O
viscosity [mPa·s], 100.3 kPa
Settings | 288.15 K | 293.15 K | 298.15 K | 303.15 K | 308.15 K | 313.15 K | 318.15 K | 323.15 K | 328.15 K
x1 = 0.0003008 | 1.156 | 1.017 | 0.9 | 0.81 | 0.727 | 0.661 | 0.604 | 0.554 | 0.511
x1 = 0.0003999 | 1.162 | 1.022 | 0.907 | 0.813 | 0.732 | 0.664 | 0.606 | 0.557 | 0.513
x1 = 0.0004953 | 1.167 | 1.027 | 0.911 | 0.817 | 0.735 | 0.666 | 0.608 | 0.559 | 0.516
x1 = 0.001005 | 1.203 | 1.057 | 0.938 | 0.838 | 0.755 | 0.685 | 0.626 | 0.573 | 0.529
x1 = 0.003004 | 1.362 | 1.197 | 1.057 | 0.939 | 0.842 | 0.759 | 0.688 | 0.629 | –
x1 = 0.004999 | 1.513 | 1.326 | 1.163 | 1.028 | 0.917 | 0.828 | 0.749 | 0.685 | –
x1 = 0.007004 | 1.658 | 1.447 | 1.273 | 1.119 | 0.998 | 0.894 | 0.806 | 0.736 | –
x1 = 0.008999 | 1.822 | 1.576 | 1.368 | 1.21 | 1.071 | 0.959 | 0.868 | 0.781 | –
x1 = 0.011 | 1.958 | 1.698 | 1.478 | 1.302 | 1.147 | 1.027 | 0.929 | 0.832 | –
x1 = 0.01301 | 2.101 | 1.819 | 1.581 | 1.38 | 1.225 | 1.089 | 0.986 | 0.888 | –
x1 = 0.015 | 2.247 | 1.941 | 1.678 | 1.469 | 1.293 | 1.157 | 1.037 | 0.932 | –
x1 = 0.01799 | 2.46 | 2.109 | 1.826 | 1.599 | 1.394 | 1.254 | 1.115 | 1 | –

CCCn1cc[n+](C)c1C.F[B-](F)(F)F + O
101 kPa
Settings | viscosity [mPa·s]
298.15 K, x2 = 0.1932 | 134.9
303.15 K, x2 = 0.1932 | 103.3
303.15 K, x2 = 0.3944 | 40.4
303.15 K, x2 = 0.4987 | 25.5
308.15 K, x2 = 0.2833 | 53.2
308.15 K, x2 = 0.3944 | 32.95
308.15 K, x2 = 0.5995 | 13.58
318.15 K, x2 = 0.0939 | 78.6
318.15 K, x2 = 0.1932 | 52.1
333.15 K, x2 = 0.0939 | 42.5
333.15 K, x2 = 0.5995 | 6.65
333.15 K, x2 = 0.6985 | 4.37
343.15 K, x2 = 0.0939 | 29.96

CC[n+]1ccccc1.N#C[N-]C#N + O
100 kPa
Settings | electrical conductivity [S/m] | viscosity [mPa·s]
298.15 K, x1 = 0.9411 | 2.15 | –
298.15 K, x1 = 0.9677 | 1.94 | –
298.15 K, x2 = 0.01044 | – | 16.52
303.15 K, x1 = 0.9542 | 2.27 | –
303.15 K, x1 = 0.9756 | – | 13.97
308.15 K, x1 = 0.9542 | 2.58 | –
308.15 K, x2 = 0.01044 | – | 12.55
313.15 K, x1 = 0.9355 | – | 10.08
313.15 K, x1 = 0.9619 | – | 10.49
313.15 K, x1 = 0.9677 | 2.82 | –
313.15 K, x2 = 0.01044 | – | 11.02
318.15 K, x1 = 0.9542 | 3.25 | –
323.15 K, x1 = 0.9756 | – | 8.27
328.15 K, x1 = 0.9756 | – | 7.44
333.15 K, x1 = 0.9283 | 4.91 | –
333.15 K, x1 = 0.9411 | 4.81 | –
333.15 K, x1 = 0.9677 | 4.61 | –
338.15 K, x1 = 0.9355 | – | 5.76
338.15 K, x1 = 0.9485 | – | 5.86
338.15 K, x1 = 0.9756 | – | 6.1

Cn1cc[n+](C)c1.[Cl-] + O
viscosity [mPa·s], 100 kPa
Settings | x1 = 8.631e-05 | x1 = 0.0002029 | x1 = 0.0003509 | x1 = 0.0005369 | x1 = 0.0007226 | x1 = 0.0008926 | x1 = 0.001063 | x1 = 0.001349 | x1 = 0.001718
278.15 K | 1.521 | 1.526 | 1.529 | 1.533 | 1.536 | 1.538 | 1.544 | 1.548 | 1.553
283.15 K | 1.307 | 1.311 | 1.313 | 1.317 | 1.32 | 1.323 | 1.327 | 1.33 | 1.334
288.15 K | 1.141 | 1.143 | 1.145 | 1.148 | 1.15 | 1.152 | 1.155 | 1.159 | 1.164
293.15 K | 1.006 | 1.007 | 1.009 | 1.012 | 1.014 | 1.016 | 1.018 | 1.022 | 1.026
298.15 K | 0.893 | 0.895 | 0.897 | 0.899 | 0.901 | 0.903 | 0.906 | 0.908 | 0.912
303.15 K | 0.802 | 0.803 | 0.804 | 0.805 | 0.806 | 0.808 | 0.811 | 0.813 | 0.817
308.15 K | 0.721 | 0.723 | 0.724 | 0.727 | 0.728 | 0.73 | 0.732 | 0.734 | 0.737
313.15 K | 0.654 | 0.655 | 0.657 | 0.659 | 0.66 | 0.662 | 0.664 | 0.666 | 0.669

Cn1cc[n+](CCO)c1.O=S(=O)([O-])C(F)(F)C(F)(F)C(F)(F)C(F)(F)F + O
101 kPa
Settings | electrical conductivity [S/m] | viscosity [mPa·s]
298.15 K, x1 = 0.02322 | 4.64 | 2.48
298.15 K, x1 = 0.02741 | 4.83 | 2.81
298.15 K, x1 = 0.05114 | – | 5.32
298.15 K, x1 = 0.05966 | – | 6.3
298.15 K, x1 = 0.09831 | 4.54 | 11.5
298.15 K, x1 = 0.1816 | 2.58 | 27.4
298.15 K, x1 = 0.6778 | 0.116 | 256
308.15 K, x1 = 0.04384 | – | 3.39
308.15 K, x1 = 0.0644 | – | 5.13
308.15 K, x1 = 0.06999 | – | 5.73
308.15 K, x1 = 0.07565 | – | 6.11
308.15 K, x1 = 0.08994 | – | 7.61
308.15 K, x1 = 0.1303 | – | 11.95
308.15 K, x1 = 0.1442 | – | 13.84
308.15 K, x1 = 0.2068 | – | 21.6
308.15 K, x1 = 0.3955 | – | 53.9
318.15 K, x1 = 0.02322 | – | 1.601
318.15 K, x1 = 0.03214 | – | 2.096
318.15 K, x1 = 0.04384 | – | 2.67
318.15 K, x1 = 0.05966 | – | 3.7
318.15 K, x1 = 0.09831 | – | 6.23
318.15 K, x1 = 0.1303 | – | 8.76
318.15 K, x1 = 0.2329 | – | 17.91

C[n+]1ccn(CCCC#N)c1.O=S(=O)([O-])C(F)(F)F + O=C1CCCO1
100 kPa
Settings | electrical conductivity [S/m]
288.15 K, x1 = 0.3003 | 0.53
288.15 K, x1 = 0.6002 | 0.186
288.15 K, x1 = 1 | 0.023
293.15 K, x1 = 0.9004 | 0.069
298.15 K, x1 = 0.9004 | 0.092
303.15 K, x1 = 0.4999 | 0.459
303.15 K, x1 = 0.8002 | 0.179
303.15 K, x1 = 0.9004 | 0.12
308.15 K, x1 = 0.6002 | 0.408
308.15 K, x1 = 1 | 0.083
313.15 K, x1 = 0.3003 | 1.08
313.15 K, x1 = 0.6002 | 0.476
313.15 K, x1 = 0.7001 | 0.372
318.15 K, x1 = 0.8002 | 0.323
318.15 K, x1 = 0.9004 | 0.234
318.15 K, x1 = 1 | 0.134
323.15 K, x1 = 0.3003 | 1.344
323.15 K, x1 = 0.8002 | 0.384
323.15 K, x1 = 0.9004 | 0.281
323.15 K, x1 = 1 | 0.167
333.15 K, x1 = 0.3999 | 1.323
338.15 K, x1 = 0.3003 | 1.79
338.15 K, x1 = 1 | 0.3
343.15 K, x1 = 0.7001 | 0.851
